Measurements published in patent US10703729B2, “Pyrazine derivative, and preparation method and medical use thereof” (GUANGZHOU MAGPIE PHARMACEUTICALS CO., LTD., priority 2015, dated 2020).

Assays:
[1] = Wang Tingfang, Journal of Pharmaceutical Practice 2011; cited from earlier work
H9c2 cells [2] = experiment: Protective effect on IAA-induced H9c2 cell damage (MTT); format: cell-based; settings: pre-treatment 1 hour, IAA 50 μM 4 hours, 490 nm, FIG. 16
Procedure: H9c2 cells were seeded in a 96-well plate and incubated for 24 hours at 37° C. in a 5% CO2 incubator. Then, 100 μL it of IND-023 in different concentrations was added and subjected to prepreparation for 1 hour. After induction with IAA (50 μM) for 4 hours, MTT was added, and the absorbance was measured at 490 nm with a microplate reader.

H9c2 cells [3] = experiment: Protective effect on t-BHP-induced H9c2 cell injury (MTT); format: cell-based; settings: pre-protected 1 hour, t-BHP 150 μM 12 hours, 490 nm, FIG. 18
Procedure: H9c2 cells were seeded in a 96-well plate in a density of 1×10^4 cells/well, and cultured in a DMEM complete medium for 24 hours. IND-023 was pre-protected for 1 hour, and then diluted t-BHP 150 μM with serum-free high glucose DMEM and induced for 12 hours. MTT (5 mg/mL) was added and cultured for 4 hours. Then, the medium was aspirated, and 100 μL, of DMSO was added to each well. The cells were homogenized by shaking in a shaking table and the absorbance was measured at a wavelength of 490 nm with a BioTek microplate reader to calculate the cell viability.

[4] = system: SD rat myocardial infarction model; experiment: SD rat myocardial infarction model; format: in vivo; settings: 20 mg/kg via tail vein after modeling, read at 24 hours; FIG. 19
Procedure: A male SD rat was anesthetized with 2.5% isoflurane and fixed. Tracheotomy was performed, and the rat was connected to a ventilator and was cut at the position 0.5 cm on the left side of the sternal along the 2nd intercostal space and the 4th intercostal space 4. The subcutaneous tissue and muscle were bluntly dissected, and the chest was opened at the 4th intercostal space with forceps to expose the chest. The pericardium was carefully opened. The anterior descending branch of the left coronary artery was ligated with non-invasive suture needle No. 8 at the position of 2 to 3 mm from the lower edge of the left atrial appendage. The elevation of the ST segment of lead II ECG after the ligation was taken as an indication of a successful model. Throughout the experiment process, the rat was placed and kept warm on a 37° C. thermostatic table, and after waking up, the rat was placed into the original cage to continue feeding. After successful modeling, the rat was injected via tail vein for 15 min to give 20 mg/kg of IND-023 with a solution of 5% ethanol+5% polyethylene glycol+90% normal saline. […]

H9c2 cells [5] = experiment: Protective effect on A/R-induced H9c2 cell damage (MTT); format: cell-based; settings: hypoxia 12 hours, reoxygenation 4 hours, 490 nm, FIG. 17
Procedure: H9c2 cells were seeded in a 96-well plate and incubated at 37° C. in a 5% CO2 incubator for 24 hours, and then hypoxia was indicated. IND-023 of the drug group was diluted with KRB buffer as an anoxic solution into desired concentrations. The model group, after added only KRB solution with 50 μL in each well, was placed into the hypoxic box to be incubated for 12 hours, whereas, the blank group, after the initial medium was replaced with serum-free high glucose DMEM, was placed into a normal incubator. After the end of hypoxia, the medium of the model group was changed to serum-free high glucose DMEM. The drug group was diluted with high-glucose DMEM to corresponding concentrations with 100 μL each well, and was placed in a normal incubator and cultured for 4 hours. After the end of reoxygenation, the existing medium was removed and MTT was added. After 4 hours, the OD value was measured at 490 nm to calculate cell viability.

| SMILES | bioavailability [1] | protective effect on IAA-induced H9c2 cell injury (H9c2 cells [2]) | protective effect on t-BHP-induced H9c2 cell injury (H9c2 cells [3]) | protective effect on SD rat myocardial infarction model [4] | protective effect on A/R-induced H9c2 cell injury (H9c2 cells [5]) |
| --- | --- | --- | --- | --- | --- |
| O=C(O)[C@H](O)Cc1ccc(O)c(O)c1 [Danshensu, Tanshinol] | 9.53-14.18% |  |  |  |  |
| Cc1nc(COC(=O)C(O)Cc2ccc(O)c(O)c2)c(C)nc1COC(=O)C(O)Cc1ccc(O)c(O)c1 (centres unmarked) [IND-023] |  | significant protective effect | significant protective effect | protective effect | significant protective effect |
